As a reminder, the IC50 is the concentration needed to halve the response being measured. The term EC50 denotes the midpoint of the concentration-response curve. What is called AC50 is the concentration giving half of the maximal activity seen. In general, pIC50 refers to the negative decadic logarithm of the IC50, by convention in mol/L. Read a low pIC50 as a high IC50.

Drawing on ChEMBL document CHEMBL1201862, “PubChem BioAssay data set” (2004), this text covers IC50, EC50 and AC50 for eight compounds.

Assay [1] addresses Intestinal-type alkaline phosphatase (Homo sapiens, UniProt P09923). Nature of the assay: inhibition of human intestinal alkaline phosphatase – biochemical, dose response (AID 488876). The class given is functional.
The target of assay [2] is T1, Tyrosine-protein phosphatase non-receptor type 22 (Homo sapiens, UniProt Q9Y2R2).
T1 sequence (Q9Y2R2 whole entry): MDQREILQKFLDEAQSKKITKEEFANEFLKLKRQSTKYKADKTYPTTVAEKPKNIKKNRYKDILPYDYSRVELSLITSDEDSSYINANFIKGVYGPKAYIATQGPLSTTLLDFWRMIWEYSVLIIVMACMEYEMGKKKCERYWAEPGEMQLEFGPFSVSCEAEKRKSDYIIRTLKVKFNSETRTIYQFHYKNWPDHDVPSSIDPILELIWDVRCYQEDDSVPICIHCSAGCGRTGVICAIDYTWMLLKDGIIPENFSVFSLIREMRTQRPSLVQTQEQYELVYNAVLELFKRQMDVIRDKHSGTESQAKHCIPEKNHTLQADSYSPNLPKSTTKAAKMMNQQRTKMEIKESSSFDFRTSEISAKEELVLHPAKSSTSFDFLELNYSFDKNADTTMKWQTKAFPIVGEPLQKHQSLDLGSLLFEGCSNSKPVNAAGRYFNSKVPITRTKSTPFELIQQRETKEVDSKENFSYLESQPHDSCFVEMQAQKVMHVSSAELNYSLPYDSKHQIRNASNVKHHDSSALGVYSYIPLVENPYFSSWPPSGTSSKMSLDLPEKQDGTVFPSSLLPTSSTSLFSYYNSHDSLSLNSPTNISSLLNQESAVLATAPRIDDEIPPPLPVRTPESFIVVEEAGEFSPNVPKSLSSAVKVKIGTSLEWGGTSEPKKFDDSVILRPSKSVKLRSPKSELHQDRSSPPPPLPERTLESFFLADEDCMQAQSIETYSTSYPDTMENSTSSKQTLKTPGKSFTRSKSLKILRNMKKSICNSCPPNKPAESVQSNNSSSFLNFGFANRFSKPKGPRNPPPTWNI
In kind it is functional.

Assay [3] addresses T2, Alkaline phosphatase, tissue-nonspecific isozyme (Homo sapiens, UniProt P05186).
T2 sequence (P05186 whole entry): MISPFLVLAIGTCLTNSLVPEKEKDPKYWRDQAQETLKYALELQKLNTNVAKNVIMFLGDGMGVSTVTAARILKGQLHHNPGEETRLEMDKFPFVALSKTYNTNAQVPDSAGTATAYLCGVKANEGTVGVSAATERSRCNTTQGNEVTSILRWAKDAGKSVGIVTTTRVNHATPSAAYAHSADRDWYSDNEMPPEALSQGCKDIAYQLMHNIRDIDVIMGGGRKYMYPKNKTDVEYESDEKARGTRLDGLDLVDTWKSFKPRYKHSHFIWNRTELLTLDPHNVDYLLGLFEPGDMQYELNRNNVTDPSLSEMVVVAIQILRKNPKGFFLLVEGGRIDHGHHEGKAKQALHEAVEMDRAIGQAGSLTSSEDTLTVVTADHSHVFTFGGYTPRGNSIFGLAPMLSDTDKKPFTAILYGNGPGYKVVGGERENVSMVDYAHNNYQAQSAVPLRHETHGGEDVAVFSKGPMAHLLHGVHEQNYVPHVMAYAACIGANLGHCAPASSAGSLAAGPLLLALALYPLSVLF
Nature of the assay: TNAP enzyme inhibition by screening hits, dose response, selectivity assay for mouse IAP inhibitor project, biochemical, human TNAP, uHTS hits (AID 488906). The class given is functional.

For assay [4], the target named is T1, Tyrosine-protein phosphatase non-receptor type 22. In kind it is functional. The source holds these as a separate data set.
For assay [5], the target named is T3, Tyrosine-protein phosphatase non-receptor type 7 (Homo sapiens, UniProt P35236).
T3 sequence (P35236 whole entry): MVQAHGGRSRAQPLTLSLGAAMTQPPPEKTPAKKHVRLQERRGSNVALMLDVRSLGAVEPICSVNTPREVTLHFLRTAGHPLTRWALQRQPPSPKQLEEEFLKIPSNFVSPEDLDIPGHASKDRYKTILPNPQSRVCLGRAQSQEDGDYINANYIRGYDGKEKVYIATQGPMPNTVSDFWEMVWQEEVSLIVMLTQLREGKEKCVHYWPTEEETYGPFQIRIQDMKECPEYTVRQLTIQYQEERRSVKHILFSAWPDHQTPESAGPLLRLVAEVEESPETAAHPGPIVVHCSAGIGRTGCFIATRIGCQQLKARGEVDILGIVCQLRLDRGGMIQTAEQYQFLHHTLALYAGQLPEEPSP
The class given is functional.

Assay [6] addresses Intestinal-type alkaline phosphatase (Mus musculus, UniProt P24822). Description: PubChem AID 488785. In kind it is functional.
The target in assay [7] is Peroxisome proliferator-activated receptor gamma/Nuclear receptor coactivator 1 (Homo sapiens, UniProt P37231). Description: TR-FRET dose response biochemical High Throughput Screening assay for agonists of the steroid receptor coactivator 1 (SRC-1) recruitment by the peroxisome proliferator-activated receptor gamma (PPAR gamma): non-selective agonists. [Related pubchem assays (depositor defined):AID1300, AID1808, AID504735, AID631]. The class given is protein assay.
Peroxisome proliferator-activated receptor gamma/Nuclear receptor coactivator 1, sequence (P37231 whole entry): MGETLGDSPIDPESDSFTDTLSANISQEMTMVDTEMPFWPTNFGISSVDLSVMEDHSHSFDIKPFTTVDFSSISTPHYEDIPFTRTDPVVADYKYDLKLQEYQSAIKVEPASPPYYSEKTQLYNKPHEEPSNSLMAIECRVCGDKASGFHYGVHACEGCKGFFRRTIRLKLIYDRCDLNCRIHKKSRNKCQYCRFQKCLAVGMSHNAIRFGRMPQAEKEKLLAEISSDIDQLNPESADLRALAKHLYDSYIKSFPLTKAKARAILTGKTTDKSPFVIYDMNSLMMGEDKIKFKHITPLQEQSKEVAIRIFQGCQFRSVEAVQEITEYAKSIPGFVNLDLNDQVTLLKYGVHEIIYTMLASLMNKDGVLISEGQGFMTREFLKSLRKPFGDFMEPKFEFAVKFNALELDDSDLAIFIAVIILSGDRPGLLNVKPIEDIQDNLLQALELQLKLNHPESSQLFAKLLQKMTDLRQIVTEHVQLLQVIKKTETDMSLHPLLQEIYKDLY
Peroxisome proliferator-activated receptor gamma/Nuclear receptor coactivator 1, sequence (Q15788 whole entry, further chain): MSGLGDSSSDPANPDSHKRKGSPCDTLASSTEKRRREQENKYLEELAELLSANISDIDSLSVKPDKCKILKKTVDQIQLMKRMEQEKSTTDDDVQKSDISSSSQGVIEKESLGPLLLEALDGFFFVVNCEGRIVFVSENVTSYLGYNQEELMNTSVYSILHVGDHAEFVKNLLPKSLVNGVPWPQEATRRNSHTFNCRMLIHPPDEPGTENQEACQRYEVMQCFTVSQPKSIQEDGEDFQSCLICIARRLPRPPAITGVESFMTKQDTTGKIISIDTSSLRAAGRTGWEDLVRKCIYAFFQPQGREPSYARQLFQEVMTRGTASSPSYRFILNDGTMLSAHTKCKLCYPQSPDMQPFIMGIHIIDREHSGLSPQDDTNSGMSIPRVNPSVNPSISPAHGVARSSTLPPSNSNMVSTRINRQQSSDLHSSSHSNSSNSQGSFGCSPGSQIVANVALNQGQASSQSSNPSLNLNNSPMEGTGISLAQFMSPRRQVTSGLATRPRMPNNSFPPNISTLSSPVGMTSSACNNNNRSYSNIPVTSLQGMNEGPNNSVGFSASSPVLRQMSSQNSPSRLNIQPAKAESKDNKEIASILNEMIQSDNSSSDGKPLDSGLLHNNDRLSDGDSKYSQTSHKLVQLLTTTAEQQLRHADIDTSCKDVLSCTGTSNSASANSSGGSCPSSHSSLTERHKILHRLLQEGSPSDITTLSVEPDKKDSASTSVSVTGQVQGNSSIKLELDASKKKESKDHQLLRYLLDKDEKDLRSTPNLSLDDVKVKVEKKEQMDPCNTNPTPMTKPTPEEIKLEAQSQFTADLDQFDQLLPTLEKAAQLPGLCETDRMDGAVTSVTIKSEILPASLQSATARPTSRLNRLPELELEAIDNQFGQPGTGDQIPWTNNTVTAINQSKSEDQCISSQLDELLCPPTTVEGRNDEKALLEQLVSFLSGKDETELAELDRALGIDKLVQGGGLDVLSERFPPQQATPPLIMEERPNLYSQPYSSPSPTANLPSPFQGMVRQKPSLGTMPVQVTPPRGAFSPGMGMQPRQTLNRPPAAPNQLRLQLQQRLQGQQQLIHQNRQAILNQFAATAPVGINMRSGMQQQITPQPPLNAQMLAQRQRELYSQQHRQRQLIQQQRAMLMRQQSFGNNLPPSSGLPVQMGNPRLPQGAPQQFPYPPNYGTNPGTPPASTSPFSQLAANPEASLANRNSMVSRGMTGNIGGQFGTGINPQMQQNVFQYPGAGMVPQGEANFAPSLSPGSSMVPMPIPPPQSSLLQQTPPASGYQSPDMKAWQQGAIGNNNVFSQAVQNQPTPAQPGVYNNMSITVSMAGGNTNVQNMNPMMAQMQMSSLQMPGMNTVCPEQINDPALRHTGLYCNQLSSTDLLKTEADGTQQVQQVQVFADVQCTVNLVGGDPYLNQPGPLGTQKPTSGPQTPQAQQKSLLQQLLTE

Assay [8] addresses Peroxisome proliferator-activated receptor gamma/Nuclear receptor coactivator 2 (Homo sapiens, UniProt P37231). Description: TR-FRET dose response biochemical High Throughput Screening assay for agonists of the steroid receptor coactivator 2 (SRC-2) recruitment by the peroxisome proliferator-activated receptor gamma (PPAR gamma): non-selective agonists. [Related pubchem assays: 1297, 1032 ]. In kind it is functional. Background: TR-FRET usually uses a lanthanide donor and a delayed reading to cut background.

In assay [9] the target is Peroxisome proliferator-activated receptor gamma/Nuclear receptor coactivator 3 (Homo sapiens, UniProt P37231). Description: TR-FRET dose response biochemical High Throughput Screening assay for agonists of the steroid receptor coactivator 3 (SRC-3) recruitment by the peroxisome proliferator-activated receptor gamma (PPAR gamma): non-selective agonists. [Related pubchem assays: 1301 (Confirmation screen.), 1048 (Primary screen.)]. The class given is functional.
Peroxisome proliferator-activated receptor gamma/Nuclear receptor coactivator 3, sequence (P37231 whole entry): as the sequence (P37231 whole entry) above
Peroxisome proliferator-activated receptor gamma/Nuclear receptor coactivator 3, sequence (Q9Y6Q9 whole entry, further chain): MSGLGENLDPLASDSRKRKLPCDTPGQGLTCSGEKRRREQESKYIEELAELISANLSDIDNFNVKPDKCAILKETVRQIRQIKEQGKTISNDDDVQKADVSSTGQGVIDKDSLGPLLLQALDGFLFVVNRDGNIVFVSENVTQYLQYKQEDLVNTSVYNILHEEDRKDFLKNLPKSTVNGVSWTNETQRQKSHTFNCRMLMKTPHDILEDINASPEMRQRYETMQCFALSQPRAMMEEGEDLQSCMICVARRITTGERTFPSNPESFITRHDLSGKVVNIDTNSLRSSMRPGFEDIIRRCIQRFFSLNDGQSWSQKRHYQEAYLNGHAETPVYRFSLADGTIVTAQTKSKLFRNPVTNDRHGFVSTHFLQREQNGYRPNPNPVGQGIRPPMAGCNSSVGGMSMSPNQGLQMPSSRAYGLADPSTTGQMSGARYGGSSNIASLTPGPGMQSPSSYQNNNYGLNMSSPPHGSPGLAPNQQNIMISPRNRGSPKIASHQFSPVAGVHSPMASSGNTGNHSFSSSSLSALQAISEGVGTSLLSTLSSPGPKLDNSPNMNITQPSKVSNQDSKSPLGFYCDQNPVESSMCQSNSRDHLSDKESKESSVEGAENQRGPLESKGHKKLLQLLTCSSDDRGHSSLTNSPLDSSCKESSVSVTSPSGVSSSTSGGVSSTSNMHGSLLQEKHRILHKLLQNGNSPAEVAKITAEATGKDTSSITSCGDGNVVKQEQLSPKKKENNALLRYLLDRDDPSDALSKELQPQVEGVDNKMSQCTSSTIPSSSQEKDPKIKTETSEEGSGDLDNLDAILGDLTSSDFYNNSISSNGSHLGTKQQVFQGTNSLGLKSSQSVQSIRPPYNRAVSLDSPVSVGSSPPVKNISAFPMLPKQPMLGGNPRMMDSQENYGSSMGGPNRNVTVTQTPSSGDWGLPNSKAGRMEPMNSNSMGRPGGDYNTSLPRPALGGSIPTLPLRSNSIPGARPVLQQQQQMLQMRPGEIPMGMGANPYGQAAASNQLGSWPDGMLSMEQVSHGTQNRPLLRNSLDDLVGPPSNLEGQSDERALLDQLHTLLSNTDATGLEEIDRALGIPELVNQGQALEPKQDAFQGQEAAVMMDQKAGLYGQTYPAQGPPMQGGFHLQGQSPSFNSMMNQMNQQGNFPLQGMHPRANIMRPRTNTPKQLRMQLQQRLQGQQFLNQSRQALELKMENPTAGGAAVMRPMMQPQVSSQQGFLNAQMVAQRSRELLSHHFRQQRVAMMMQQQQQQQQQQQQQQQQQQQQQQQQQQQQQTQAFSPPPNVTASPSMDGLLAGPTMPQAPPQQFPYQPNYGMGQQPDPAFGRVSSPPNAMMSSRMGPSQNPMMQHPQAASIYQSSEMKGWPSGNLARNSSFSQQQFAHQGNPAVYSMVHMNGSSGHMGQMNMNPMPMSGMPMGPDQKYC

For assay [10], the target named is Cytochrome P450 2D6 (Homo sapiens, UniProt P10635).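 Also: CYP2D6 member of a cytochrome P450 panel assay.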
For assay [11], the target named is Sphingosine 1-phosphate receptor 4 (Homo sapiens, UniProt O95977). Nature of the assay: Fluorescence dose response cell-based high throughput screening assay for agonists of the Sphingosine 1-Phosphate Receptor 4 (S1P4). [Related pubchem assays: 1509 (Primary screen.), 1523 (Confirmation screen in triplicates.)]. The class given is functional.
The target in assay [12] is Sphingosine 1-phosphate receptor 1 (Homo sapiens, UniProt P21453). Nature of the assay: Fluorescence-based counterscreen assay for S1P4 agonists: Cell-based dose response high throughput screening assay to identify agonists of the Sphingosine 1-Phosphate Receptor 1 (S1P1). [Related pubchem assays (depositor defined):AID1509, AID1523, AID1801, AID463107, AID463118, AID463119, AID463122, AID463123, AID463129, AID463225, AID504400, AID504460]. The class given is functional. A general note: Counterscreens check selectivity or assay interference.

Assay [13] concerns the target T4, Delta-type opioid receptor (Homo sapiens, UniProt P41143). Description: HTS Image-Based Screen for Agonists of the DOR Receptor. [Related pubchem assays (depositor defined):AID1777, AID1786, AID2133]. The class given is functional.
Assay [14] addresses T5, Kappa-type opioid receptor (Homo sapiens, UniProt P41145). In kind it is functional.
The target in assay [15] is Beta-galactosidase (Escherichia coli, UniProt Q8VNN2). The class given is functional.
Assay [16] has as its target Mu-type opioid receptor (Homo sapiens, UniProt P35372). Nature of the assay: HTS Image-Based Screen for Agonists of the MOR Receptor. [Related pubchem assays (depositor defined):AID1777, AID1785, AID1786, AID2133]. The class given is functional.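 Also: imaging of beta-arrestin GFP recruitment into spots after receptor activation.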
In assay [17] the target is T4, Delta-type opioid receptor. Nature of the assay: HTS Image-Based Screen for Antagonists of the DOR Receptor. [Related pubchem assays (depositor defined):AID1777, AID1785, AID1786, AID2133]. In kind it is functional.
Assay [18] addresses T5, Kappa-type opioid receptor. The class given is functional. The source holds these as a separate data set.
The target of assay [19] is Exodeoxyribonuclease V (Escherichia coli (strain K12), UniProt P04993+P07648+P08394). Nature of the assay: RecBCD inhibition via phage-restricted bacterial growth – absorbance, V66 E. coli, mutant T4 phage, counter-screen for AddAB inhibitor project, dose response (AID 492957). The class given is functional, cell-based, Escherichia coli str. K-12 substr. MG1655.
Assay [20] can be described thus: Counterscreen for AddAB inhibitors: absorbance-based bacterial cell-based high throughput dose response assay for inhibitors of bacterial viability. [Related pubchem assays (depositor defined):AID435030, AID449728, AID449731, AID488942, AID488955, AID488956]. The class given is functional.
Assay [21] has as its target T6, Long-chain-fatty-acid--AMP ligase FadD28 (Mycobacterium tuberculosis, UniProt P9WQ59).
T6 sequence (P9WQ59 whole entry): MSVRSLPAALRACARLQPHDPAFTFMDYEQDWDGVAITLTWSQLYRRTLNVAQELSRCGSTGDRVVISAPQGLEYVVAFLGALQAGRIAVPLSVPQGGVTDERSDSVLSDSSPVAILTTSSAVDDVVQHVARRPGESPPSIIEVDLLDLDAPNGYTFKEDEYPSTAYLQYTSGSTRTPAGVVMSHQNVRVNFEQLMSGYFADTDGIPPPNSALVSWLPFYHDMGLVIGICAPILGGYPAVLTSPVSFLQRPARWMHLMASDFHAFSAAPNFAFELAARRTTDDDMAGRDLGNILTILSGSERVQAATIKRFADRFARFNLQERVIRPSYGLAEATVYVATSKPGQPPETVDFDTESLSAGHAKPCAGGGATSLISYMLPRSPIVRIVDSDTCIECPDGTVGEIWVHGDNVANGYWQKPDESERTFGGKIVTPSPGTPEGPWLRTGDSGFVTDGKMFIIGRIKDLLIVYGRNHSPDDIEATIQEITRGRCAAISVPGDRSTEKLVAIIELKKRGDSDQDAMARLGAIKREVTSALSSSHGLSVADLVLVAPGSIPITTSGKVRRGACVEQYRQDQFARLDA
Description: Fluorescence polarization aasay to screen for inhibitors that compete for the binding of FadD28 to a bisubstrate Measured in Biochemical System Using Plate Reader - 2147-01_Inhibitor_Dose_CherryPick_Activity. In kind it is functional, Mycobacterium tuberculosis H37Rv.

Assay [22] relates to HeLa. Description: ATP-based viability loss in HeLa cells – cell-based, CellTiter-Glo luminescence, cherry-pick samples, cytotoxicity control for MITF activator project, dose response (AID 540259). The class given is functional. As to conditions: Homo sapiens. In general terms: In ATP-based viability assays light output follows the ATP content of the culture.
For assay [23], the system named is HEK293. Nature of the assay: cells. The conditions noted are these: Homo sapiens.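 Also: cells exposed to compound for 14 hours overnight before viability readout.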
Assay [24] concerns the target Tumor necrosis factor (Homo sapiens, UniProt P01375). Description: analog potency on TNFa NF-kB signaling – cell-based, revised, SAR follow-up (AID 2337). In kind it is functional.

pIC50: −log10 of the molar value. Calls of active or inactive are those of the source.

T5 sequence (P41145 whole entry): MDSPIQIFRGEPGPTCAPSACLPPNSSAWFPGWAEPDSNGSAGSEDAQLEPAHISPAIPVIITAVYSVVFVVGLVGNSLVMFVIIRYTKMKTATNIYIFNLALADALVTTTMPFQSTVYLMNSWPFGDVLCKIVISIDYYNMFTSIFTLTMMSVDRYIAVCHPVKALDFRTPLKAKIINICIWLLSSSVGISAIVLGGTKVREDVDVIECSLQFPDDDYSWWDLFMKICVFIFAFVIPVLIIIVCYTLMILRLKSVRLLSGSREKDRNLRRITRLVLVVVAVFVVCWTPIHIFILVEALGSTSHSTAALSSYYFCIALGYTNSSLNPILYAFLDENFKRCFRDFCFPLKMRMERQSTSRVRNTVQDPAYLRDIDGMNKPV
T4 sequence (P41143 whole entry): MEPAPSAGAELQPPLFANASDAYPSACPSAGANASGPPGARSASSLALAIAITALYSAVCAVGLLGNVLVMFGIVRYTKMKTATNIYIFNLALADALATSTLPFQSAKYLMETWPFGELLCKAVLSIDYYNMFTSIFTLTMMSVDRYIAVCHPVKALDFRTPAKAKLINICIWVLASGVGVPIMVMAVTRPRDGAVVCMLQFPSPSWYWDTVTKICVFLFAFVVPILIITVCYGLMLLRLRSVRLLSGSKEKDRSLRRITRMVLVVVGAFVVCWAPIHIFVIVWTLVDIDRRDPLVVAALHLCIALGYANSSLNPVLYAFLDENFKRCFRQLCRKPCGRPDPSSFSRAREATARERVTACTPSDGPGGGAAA
Mu-type opioid receptor, sequence (P35372 whole entry): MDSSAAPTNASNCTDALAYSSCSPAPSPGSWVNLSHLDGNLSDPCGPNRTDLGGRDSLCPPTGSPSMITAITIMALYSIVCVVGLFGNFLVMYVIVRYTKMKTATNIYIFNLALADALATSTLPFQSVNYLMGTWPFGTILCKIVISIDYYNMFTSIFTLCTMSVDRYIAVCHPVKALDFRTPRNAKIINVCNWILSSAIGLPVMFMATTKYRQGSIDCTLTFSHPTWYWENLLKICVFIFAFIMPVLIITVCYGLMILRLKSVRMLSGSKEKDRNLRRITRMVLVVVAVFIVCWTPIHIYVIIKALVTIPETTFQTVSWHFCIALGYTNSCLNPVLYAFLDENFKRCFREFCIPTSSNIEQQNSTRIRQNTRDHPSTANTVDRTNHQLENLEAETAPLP

In the case of `S=C(NCc1ccc(Cl)cc1Cl)NC1CCCCC1`, the IC50 in [1] is 29.2 µM (active); in assay [2], > 79.4 µM (inactive); in assay [3] it was 87.6 µM (active); in assay [4], > 79.4 µM (inactive); in [5], > 79.4 µM (inactive); in assay [6], 6.56 µM (active).

For `O=C1C=C(c2cccs2)CC(c2cccs2)C1n1cnc([N+](=O)[O-])c1` (stereo unspecified), the figures for the EC50 in [7], in [8] and in assay [9] were 18.5 µM (inactive), 20.7 µM (not active) and > 79.4 µM (not active), respectively. In assay [10], the AC50 is 15.8 µM (inconclusive).

With `Cn1c(SCC(=O)c2ccc3c(c2)OCO3)nnc1C1COc2ccccc2O1` (stereo unspecified), the figures for the EC50 in assay [11] and in assay [12] were > 49.8 µM (not active) and > 49.8 µM (inactive), respectively.

Regarding `Cc1cccc(C(=O)NC2CC3CCCC(C2)N3Cc2ccccc2)c1` (stereo unspecified), the EC50 in [13] is > 32 µM (inactive); in assay [15] it was > 31.5 µM (inactive); in [16], > 32 µM (inactive). This compound gave a pIC50 in assay [14] of 4.70. Moreover, the IC50 in [17] is > 32 µM (inactive); in [18], 15.7 µM (active).

In the case of `O=C(COC(=O)COc1ccccc1)Nc1ncc([N+](=O)[O-])s1`, the IC50 in [1] is > 100 µM (inactive); in [19], > 119 µM (inactive); in [3], 4.72 µM (active); in [20] it was > 39.5 µM (inactive); in assay [6], 0.674 µM (active).

On to `COc1cc(/C=C2\SC(=S)N(NC(=O)c3ccc(O)c(OC)c3)C2=O)ccc1O`, for which the EC50 in assay [13] is > 32 µM (inactive); in assay [15], 10.3 µM (active); in assay [16], > 32 µM (inactive). This compound also gave a pIC50 in assay [14] of less than 4.49. Besides, the IC50 is > 32 µM (inactive) in assay [17] and 14.9 µM (active) in assay [18]. The AC50 in assay [21] was > 100 µM (inactive).

Regarding `O=C(Nc1ccccc1)c1ccc(-c2ccccc2)s1`, the EC50 in [7] was 8.84 µM (active); in [8], 10.6 µM (not active); in [9] it was 35 µM (not active). The AC50 in assay [22] was 48 µM (active).

As for `CCOc1ccc(NC(=O)c2ccc(CN3CCCCC3)cc2)cc1`, the IC50 in assay [23] and in assay [24] was > 20 µM (inactive) throughout.
